Consider 102 compounds from ChEMBL document CHEMBL3507680, “University of Dundee, Gates Library screen for HepG2 cell viability”.

The nature of the data set: Human HepG2 cell viability assay in 384 well format. Details: dose 125 nL, time 70.5 hour; concentration not given beside the values. The conditions noted are these: HepG2 cells, read-out: Inhibition. The format is toxicity, cell-based.
`O=C(CCN1CCCC1c1cccc(F)c1)N1CCc2sccc2C1` (configuration not stated): the cytotoxicity at 70.5 h stood at 0.336%.
The figure for `Cc1ccccc1OCC(=O)N1CCN(C2CCOC2=O)CC1` (configuration not stated) is 0.726%; for `CCn1nc2c(cc1=O)CN(Cc1coc(-c3ccccc3)n1)CC2` it is -3.27%; for `COCCOc1ncccc1C(=O)N1CCCCC1c1nccs1` (configuration not stated) it is -3.02%.
Take `COCCOc1cccc(C(=O)N2CCCCC2c2nccs2)c1` (configuration not stated): the cytotoxicity at 70.5 h is -3.68%.
For `O=C(NCCNc1ncccn1)N1CCCC1`, the cytotoxicity at 70.5 h is -0.644%.
For `O=C1OCCC1N1CCN(C(=O)Cc2ccccc2Cl)CC1` (configuration not stated), the cytotoxicity at 70.5 h was -0.257%.
Take `O=C(NCCOCC(F)(F)F)c1ccc(-c2ccccc2)[nH]c1=O`: the cytotoxicity at 70.5 h was -7.3%.
For the compound `Cc1cc(C2CCCN2CCC(=O)N2CCc3sccc3C2)no1` (configuration not stated), the cytotoxicity at 70.5 h was found to be 1.59%.
In the case of `COCc1ccc(CNCc2c(C)nn(C)c2N(C)C)cc1`, the cytotoxicity at 70.5 h came out at 24.1%.
For `Cn1nc2c(cc1=O)CN(Cc1coc(-c3ccccc3)n1)CC2`, the cytotoxicity at 70.5 h is 0.822%.
In the case of `Cc1csc(C2CCCCN2C(=O)c2cc(Cl)c[nH]2)n1` (configuration not stated), the cytotoxicity at 70.5 h was -0.326%.
For the compound `CC(C)(C)OC(=O)NCCNC(=O)c1ccc(-c2ccco2)[nH]c1=O`, the cytotoxicity at 70.5 h was -0.98%.
For `O=C(c1ccc2c(c1)OCCCO2)N1CCCC(n2cccn2)C1` (configuration not stated), the cytotoxicity at 70.5 h is 0.26%.
`CCc1nc2n(n1)CC(NCc1nnc(C(C)C)o1)CC2` (configuration not stated): the cytotoxicity at 70.5 h came out at 19.3%.
`CC(NC(=O)CCOc1cccc(F)c1)c1nnc2n1CCC2` (configuration not stated): the cytotoxicity at 70.5 h is -2.58%.
For `CC(NC(=O)Nc1cccnc1N1CCCC1)c1ccncc1` (configuration not stated), the cytotoxicity at 70.5 h turned out to be 0.728%.
Regarding `N#Cc1cccc(CNC(=O)Nc2cccnc2N2CCCC2)c1`, the cytotoxicity at 70.5 h was -1.72%.
Regarding `COc1ncccc1CNC(=O)Nc1cccnc1N1CCCC1`, the cytotoxicity at 70.5 h was found to be 5.6%.
With `O=C(NCc1cccnc1-n1cncn1)c1ccc2c(c1)CCO2`, the cytotoxicity at 70.5 h was -1.03%.
As for `Cc1cnn(CC2CN(Cc3nc(-c4cccnc4)no3)CCO2)c1` (configuration not stated), the cytotoxicity at 70.5 h was -0.171%.
The figure for `CC(C)c1nc2n(n1)CC(NCc1nnc(C3CC3)o1)CC2` (configuration not stated) is 0.876%.
As to `CCc1nnc(CNC2CCc3nc(C(C)C)nn3C2)o1` (configuration not stated), the cytotoxicity at 70.5 h turned out to be 0.155%.
As for `OCCN1CCN(CC(O)c2ccc(OC(F)(F)F)cc2)CC1` (configuration not stated), the cytotoxicity at 70.5 h was -2.1%.
`Cc1nn(C)c(C)c1C1CCCN1CC(=O)Nc1ccc(Cl)cn1` (configuration not stated): the cytotoxicity at 70.5 h was determined as 2.19%.
Turning to `Cc1cnn(CCC(=O)N2CCCC(c3nc(C)c(C)s3)C2)c1` (configuration not stated), the cytotoxicity at 70.5 h is 1.92%.
Take `Cc1cc(C)n(CCC(=O)N2CCCC(c3cc(C(N)=O)[nH]n3)C2)n1` (configuration not stated): the cytotoxicity at 70.5 h came to 29.3%.
On to `Cc1ccccc1CCC(=O)N1CCCC(c2cc(C(N)=O)[nH]n2)C1` (configuration not stated), for which the cytotoxicity at 70.5 h turned out to be 6.15%.
Next, `COCCOc1ccccc1C(=O)N1CCCC(c2cc(C)[nH]n2)C1` (configuration not stated): 0.71%.
The figure for `CC(NC(=O)Nc1cccnc1N1CCCC1)c1ccn(C)c1` (configuration not stated) is 25%; for `CCCC(=O)N1CCN(CC(O)COCC)CC1` (configuration not stated) it is 1.27%; for `Cc1ccc(N2CCCC(NCc3ccc4c(c3)CCO4)C2)nn1` (configuration not stated) it is 4.47%.
On to `Cc1cnn(CCC(=O)N2CCCC(c3ccn[nH]3)C2)c1` (configuration not stated), for which the cytotoxicity at 70.5 h is -1.8%.
With `CC(=O)NCCNC(=O)CN1CCCC1c1c(C)nn(C)c1C` (configuration not stated), the cytotoxicity at 70.5 h was 25.7%.
Turning to `CCOCC(O)CN1CCN(C(=O)C2CCC2)CC1` (configuration not stated), the cytotoxicity at 70.5 h was -3.91%.
The figure for `CN(C)c1ncccc1CNC(=O)NCCN(C)C1CCCC1` is -0.0535%.
In the case of `CN(Cc1coc(-c2ccccc2)n1)C1CCCN(c2cccnn2)C1` (configuration not stated), the cytotoxicity at 70.5 h was -7.45%.
As for `CC(C)n1cnnc1C1CCCN(C(=O)COCc2ccccc2)C1` (configuration not stated), the cytotoxicity at 70.5 h is -5.17%.
Regarding `Cc1nc(C)n(C2CCCN(C(=O)Cc3csc(C(C)C)n3)C2)n1` (configuration not stated), the cytotoxicity at 70.5 h is -3.36%.
Consider `CN1N=C(C(=O)N2CCCC(n3ccnc3)C2)CCC1=O` (configuration not stated), for which the cytotoxicity at 70.5 h was -7.88%.
For `C1CC(c2noc(C3CC3)n2)N(Cc2nc(C3CC3)no2)C1` (configuration not stated), the cytotoxicity at 70.5 h is -10.7%.
Turning to `CC(C)c1nccn1C1CCCN(C(=O)C2=NN(C)C(=O)CC2)C1` (configuration not stated), the cytotoxicity at 70.5 h was -10.1%.
In the case of `COc1cccc(CC(=O)N2CCCC(c3nncn3C)C2)c1` (configuration not stated), the cytotoxicity at 70.5 h was -12.3%.
Next, `Cc1cc(NC(=O)NCc2cccnc2OC(C)C)no1`: -0.0866%; `CS(=O)(=O)NCC1CCCN(C(=O)c2cccc(F)c2)C1` (configuration not stated): -6.44%; `CC(Cn1cccn1)NC(=O)N1CCCN(Cc2cccs2)CC1` (configuration not stated): -5.76%.
Next, `Cc1cnn(CC(C)NCc2csc(-c3ccco3)n2)c1` (configuration not stated): 4.15%; `COC(=O)C(c1cc(F)ccc1F)N(C)C(=O)c1cccnc1O` (configuration not stated): 0.116%.
The figure for `Cc1cc(C)n(CC2CCCN2C(=O)c2ccc(C(N)=O)cn2)n1` (configuration not stated) is -1.95%; for `Cc1cc(C(=O)N2CCN(C(=O)Cc3ccccn3)CC2)c(C)s1` it is 0.259%.
For the compound `Cc1nn(C)c(C)c1CNCc1ccnc(N2CCOCC2)c1`, the cytotoxicity at 70.5 h is 31.5%.
Next, `CC(=O)N1CCCN(C(=O)NCCc2cc(Cl)cc(Cl)c2)CC1`: -6.77%; `COCc1nc(C(=O)N2CCCC2c2noc(C(C)C)n2)cs1` (configuration not stated): -0.699%; `CC(=O)N1CCCN(C(=O)NCCc2ccc(Cl)s2)CC1`: -1.97%.
The figure for `CCc1noc(C(C)N2CCC(C(=O)Nc3cnn(CC)c3)CC2)n1` (configuration not stated) is 41.4%.
`O=C(Cc1ccccn1)N1CCN(C(=O)c2cccc3[nH]ncc23)CC1`: the cytotoxicity at 70.5 h is 1.92%.
As to `O=C(NS(=O)(=O)c1ccc2c(c1)OCCO2)c1ccc(Br)cc1F`, the cytotoxicity at 70.5 h came to 5.66%.
Take `Cc1ccc(N2CCCC(NCC(=O)Nc3cc(C)no3)C2)nn1` (configuration not stated): the cytotoxicity at 70.5 h was determined as 25.6%.
Consider `CCCc1nc(CN2CCOC(Cn3cncn3)C2)no1` (configuration not stated), for which the cytotoxicity at 70.5 h came out at 18.1%.
Regarding `CCc1n[nH]c(C2CN(C(=O)Cn3ccccc3=O)CCO2)n1` (configuration not stated), the cytotoxicity at 70.5 h was found to be 21.1%.
Turning to `CCN(CCNC(=O)c1ccccc1OCCOC)C1CC1`, the cytotoxicity at 70.5 h was 54.8%.
Regarding `O=C(c1cccc(CNCC2CNc3ccnn3C2)c1)N1CCCC1` (configuration not stated), the cytotoxicity at 70.5 h was 16.7%.
As to `CCOc1cc(/C=C/c2ncc(C(=O)O)s2)ccc1O`, the cytotoxicity at 70.5 h is 0.103%.
On to `Cc1cnn(CCC(=O)N2CCCN(c3ncccc3C#N)CC2)c1`, for which the cytotoxicity at 70.5 h came out at 0.758%.
Next, `CCCNC(=O)Cn1cc(-c2ccccc2)cn1`: 1.15%; `CNC(=O)NC(=O)Cn1cc(-c2ccccc2)cn1`: -2.21%; `Cc1nc(C)n(CC2CCCCN2CCC(=O)Nc2cc(C)on2)n1` (configuration not stated): -3.96%.
As for `Cc1ccccc1Cc1cnc(NC(=O)C2CNC(=O)N2)s1` (configuration not stated), the cytotoxicity at 70.5 h is 2.49%.
In the case of `Cc1ccc(Cc2cnc(NC(=O)C3CNC(=O)N3)s2)cc1F` (configuration not stated), the cytotoxicity at 70.5 h is -0.116%.
Regarding `Cc1cc(NC(=O)CCN2CCCC2Cn2cncn2)no1` (configuration not stated), the cytotoxicity at 70.5 h was 1.41%.
On to `CC(C)Oc1ccccc1CNC(=O)N1CCC(n2cncn2)CC1`, for which the cytotoxicity at 70.5 h came out at 26.9%.
Regarding `Cc1cnn(CCC(=O)N2CCN(c3ncccc3Cl)CC2)c1`, the cytotoxicity at 70.5 h is -0.781%.
Next, `CC(C)c1nc(C(=O)N2CCCC(n3cncn3)C2)c[nH]1` (configuration not stated): -2.47%.
With `c1ccc(-c2nc(CN3CCCC(Cn4cncn4)C3)no2)cc1` (configuration not stated), the cytotoxicity at 70.5 h was 2.09%.
The figure for `CN1CCCc2cc(CNC(=O)c3ccc(NC4CC4)nc3)ccc21` is -3.79%.
Consider `Cc1nc(C)n(CC2CCCN(CCc3ccccn3)C2)n1` (configuration not stated), for which the cytotoxicity at 70.5 h was 28.4%.
Take `COc1ccc(OCCCN2CCOC(Cn3cccn3)C2)cc1` (configuration not stated): the cytotoxicity at 70.5 h was found to be 15.4%.
For `Cc1ccc(NC2CCN(C(=O)CN(C)C3CC3)CC2)nn1`, the cytotoxicity at 70.5 h was -1.46%.
Take `Cn1cc(C(=O)CC2CCCN2C(=O)c2n[nH]c3ccccc23)cn1` (configuration not stated): the cytotoxicity at 70.5 h was 8.22%.
On to `CCN(CCNC(=O)c1ccccc1Br)C1CC1`, for which the cytotoxicity at 70.5 h is -3.52%.
Regarding `CCNC(c1cccnc1)c1cc(C)cc(C)c1` (configuration not stated), the cytotoxicity at 70.5 h came out at 2.24%.
Next, `Cc1nn(C)c(Cl)c1C1CCCN1CCc1ccccn1` (configuration not stated): 1.44%; `CCNC(c1cccnc1)c1ccc(F)c(F)c1` (configuration not stated): -2.78%.
For the compound `Fc1ccc(OCCCN2CCOC(Cn3cncn3)C2)cc1` (configuration not stated), the cytotoxicity at 70.5 h was -5.61%.
Next, `Cc1cnn(CCC(=O)N2CCCN(c3cccnn3)CC2)c1`: -2.44%; `Cc1cnc(CN(C)C2CCN(CCn3cc(C#N)cn3)C2)o1` (configuration not stated): 7.37%.
Consider `CCC1CN(CCNC(C)=O)CCN1CCOC` (configuration not stated), for which the cytotoxicity at 70.5 h came to 2.28%.
For `CC(=O)N1CCN(C(=O)c2cnn(-c3ccccc3Cl)c2)CC1`, the cytotoxicity at 70.5 h worked out at 3.15%.
`CCOc1cccc2c1OCC(C(=O)NS(=O)(=O)c1ccc(Cl)cc1)=C2`: the cytotoxicity at 70.5 h was found to be 21.1%.
Next, `CCCN(Cc1ccccc1)Cn1nc(C)c2c(C)onc2c1=O`: 0.0673%.
On to `CCN(Cc1cccc(Cl)c1)Cn1nc(C)c2c(C)onc2c1=O`, for which the cytotoxicity at 70.5 h stood at 25.1%.
On to `c1ccc2sc(CN3CCOC(Cn4cccn4)C3)nc2c1` (configuration not stated), for which the cytotoxicity at 70.5 h is 24.8%.
The figure for `Cc1cnn(C2CCCN(C(=O)c3cnc4ccccc4n3)C2)c1` (configuration not stated) is -7.22%; for `Cc1cnn(CC2CCCN2C(=O)c2cn(-c3ccccc3)nc2C)c1` (configuration not stated) it is 6.33%.
For the compound `Cc1cc(C)cc(N(C)S(=O)(=O)c2cc(C(=O)O)cs2)c1`, the cytotoxicity at 70.5 h is -6.25%.
Next, `N#Cc1cc(NS(=O)(=O)c2ccc(C(=O)O)cc2F)ccc1F`: -1.12%; `Cc1nc(CN2CCOC(CNc3cccnn3)C2)oc1C` (configuration not stated): 30.3%; `O=C(Cc1noc2ccccc12)N1CCCC1c1noc(C2CC2)n1` (configuration not stated): 32.1%.
For the compound `CC(C)(C)SCCCC(=O)N1CCC(Nc2cccnn2)CC1`, the cytotoxicity at 70.5 h is -6.39%.
For `C1CC(NCc2nc(C3CC3)no2)CN(Cc2noc(C3CC3)n2)C1` (configuration not stated), the cytotoxicity at 70.5 h came out at 21.5%.
`O=C(c1cccc(CN2CCCC2)c1)N1CCCC(n2cncn2)C1` (configuration not stated): the cytotoxicity at 70.5 h amounted to 16.1%.
The figure for `COc1ccc(CCNCc2c(C)nn(C)c2N(C)C)cc1OC` is -1.22%.
